Results on 3 compounds are retold here after US4582821A, “Inhibition of cyclic nucleotide independent protein kinases” (E. I. Du Pont de Nemours and Company, priority 1983, dated 1986).

The subject of assay [1] is A-431 plasma membrane extracts (EGF-mediated protein phosphorylation). Put plainly: Protein phosphorylation in solubilized A-431 plasma membrane extracts, with or without EGF. The following applies: 477 nmol/mg protein. It is filed as biochemical, human. The method, then:
The capacity of certain peptide halomethyl ketones to inhibit protein phosphorylation is illustrated by Examples 1-8, below, in which solubilized plasma membranes prepared from A-431 human epidermoid carcinoma cells were incubated with [γ-^32 P] ATP in the presence of EGF.
A-431 human epidermoid carcinoma cells were grown in Dulbecco's modified Eagle's medium containing 5% fetal calf serum. Plasma membranes were isolated by a method substantially similar to that described by Thom et al., Biochem J. 168:187 (1977), and kept at -70°. Solubilization of plasma membranes was performed substantially as described by Cohen et al., J. Biol. Chem. 255:4834 (1980). In this procedure, 7.5 mg/mL protein was solubilized with 5% Triton X-100 (octylphenol), 10% glycerol, and 20 mM Hepes buffer (N-2-hydroxyethylpiperazine-N^1 -2-ethanesulfonic acid), pH 7.4. This mixture was incubated for 20 minutes at about 23°, followed by centrifugation at 100,000 xg for 60 minutes.
(§1) Protein phosphorylation assays were conducted substantially as described by Carpenter et al., J. Biol. Chem. 254:4884 (1979). Each assay mixture contained, in a final volume of 70 μL: 20 mM Hepes, pH 7.4, 0.01% bovine serum albumin (BSA), 15-150 μg protein in Triton extract, 100 ng EGF, 1 mM MnCl2 and 10-20 μM [γ-^32 P] ATP (2-4 μCi). Peptide halomethyl ketones were added as solutions in ethanol; an equivalent volume of ethanol was added to controls. Assay mixtures were incubated at about 23° for ten minutes, with or without added EGF. Mixtures were then held at 0° for ten minutes before initiation of phosphorylation by addition of 15 μM γ-^32 P) ATP (2 μCi). Reactions were terminated after 3 minutes at 0° by applying an aliquot of the assay mixture to a Whatman 3MM filter paper (2×2 cm), which was then suspended in ice-cold 10% trichloroacetic acid containing 10 mM pyrophosphate. This suspension was gently shaken for a period of 1 hour, during which the trichloroacetic acid/pyrophosphate mixture was changed three times. Finally, the filter papers were dried and radioactivity measured by scintillation counting.

The next assay concerns the target T1, A-431 cell EGF receptor (Homo sapiens, UniProt P00533).
T1 construct: intact A-431 cell membranes were employed, rather than solubilized extracts; endogenous in cells; host or cells: A-431 human epidermoid carcinoma cells (plasma membranes)
In words: Protein phosphorylation of A-431 cell membrane EGF receptors (intact membranes, EGF present). It is filed as biochemical. The following applies: 600 nmoles/mg protein, intact A-431 membranes. The method, then: as §1
Assays were conducted substantially as described above, except intact A-431 cell membranes were employed, rather than solubilized extracts, and assay mixtures contained 1 mM ouabain. In these Examples, reactions were permitted to proceed for 6 minutes. This technique is substantially similar to that disclosed by Navarro et al., Biochemistry, 21:6138 (1982).

Another assay has as its target T2, p130^fps (UniProt P00530+P03323).
T2 construct: anti-gag serum and Staphylococcus protein A suspension (for FSV-transformed cells); viral gag-derived N-terminal portion (natural gag-fps fusion); expressed in transfected cells; immune complex with anti-gag serum and Staphylococcus protein A
Put plainly: Immune complex phosphorylation by p130fps immunoprecipitates of FSV-transformed cells. It is filed as biochemical, Fujinami sarcoma virus (FSV). The following applies: for Activity (cpm), FSV: anti-gag immunoprecipitates, no inhibitor 27036; for Activity (cpm), Control: extracts immunoprecipitated with normal serum, no inhibitor 2624. The method, then:
In this experiment, Boc-LeuCH2 Br was tested as an inhibitor of pp60^src and p130^fps, the tyrosine-specific protein kinases encoded by the transforming genes of RSV and Fujinami sarcoma virus, respectively.
These viral gene products were partially purified by preparation of immune complexes substantially according to the technique described by Collett et al., Proc. Nat. Acad. Sci. USA 75:2021 (1978). In this procedure, immunoprecipitates are prepared by incubation of extracts of virus-transformed cells with tumor-bearing rabbit serum (TBR) and Staphylococcus protein A suspension (for RSV-transformed cells) or anti-gag serum and Staphylococcus protein A suspension (for FSV-transformed cells).
Assay mixtures contained, in a final volume of 70 μL, 100 μg of immune complex protein, 20 mM Hepes, pH 7.4, and 1 mM MnCl2. Phosphorylation was initiated by addition of 1 μM (4 μCi) [γ-^32 P] ATP. After 10 minutes at about 23°, reactions were terminated by pipetting 20 μL aliquots of assay mixture onto 2×2 cm squares of Whatman 3 MM filter paper, which were immediately suspended in 10% TCA/10 mM sodium pyrophosphate. […] Controls for the immunoprecipitation procedure were prepared by immunoprecipitating transformed cell extracts with normal serum. Values in parentheses represent specific phosphorylation induced by virus-transformed cells.
In a related experiment, the capacity of Boc-LeuCH2 Br to inhibit phosphorylation of casein by p130^fps was determined. These tests were conducted substantially as described above, except 1 mg/mL casein was added to assay mixtures as a substrate, and reactions were terminated by addition of 2.5 mM unlabeled ATP and immediate cooling to 0°. Phosphorylated casein was separated from immunoprecipitate suspensions by centrifugation at 3,000 xg for 3 minutes. The resulting pellets were resuspended in 70 μL of 10 mM Hepes, pH 7.5, and 20 μL aliquots were pipetted onto filter paper squares as previously described.
This experiment was conducted substantially according to the procedures described in Example 17, above. In Table 5, "FSV" refers to immunoprecipitates of FSV-transformed cell extracts prepared by addition of anti-gag serum; controls were extracts immunoprecipitated with normal serum.

The test system of the next assay is pp60^src. To be noted: Richert et al., Cell 18:369 (1979); cited from earlier work.
The subject of a further assay is ASV-transformed cells. The following applies: Weber, Cell 5:253 (1975); cited from earlier work.
A further assay relates to hexokinase. The following applies: Johnson et al., Biochemistry 21:2984 (1982); cited from earlier work.
Another assay deals with protein kinase. To be noted: Johnson et al., Biochemistry 21:2984 (1982); cited from earlier work.

Molecules are shown by their SMILES.

T1 sequence (P00533 25-1210): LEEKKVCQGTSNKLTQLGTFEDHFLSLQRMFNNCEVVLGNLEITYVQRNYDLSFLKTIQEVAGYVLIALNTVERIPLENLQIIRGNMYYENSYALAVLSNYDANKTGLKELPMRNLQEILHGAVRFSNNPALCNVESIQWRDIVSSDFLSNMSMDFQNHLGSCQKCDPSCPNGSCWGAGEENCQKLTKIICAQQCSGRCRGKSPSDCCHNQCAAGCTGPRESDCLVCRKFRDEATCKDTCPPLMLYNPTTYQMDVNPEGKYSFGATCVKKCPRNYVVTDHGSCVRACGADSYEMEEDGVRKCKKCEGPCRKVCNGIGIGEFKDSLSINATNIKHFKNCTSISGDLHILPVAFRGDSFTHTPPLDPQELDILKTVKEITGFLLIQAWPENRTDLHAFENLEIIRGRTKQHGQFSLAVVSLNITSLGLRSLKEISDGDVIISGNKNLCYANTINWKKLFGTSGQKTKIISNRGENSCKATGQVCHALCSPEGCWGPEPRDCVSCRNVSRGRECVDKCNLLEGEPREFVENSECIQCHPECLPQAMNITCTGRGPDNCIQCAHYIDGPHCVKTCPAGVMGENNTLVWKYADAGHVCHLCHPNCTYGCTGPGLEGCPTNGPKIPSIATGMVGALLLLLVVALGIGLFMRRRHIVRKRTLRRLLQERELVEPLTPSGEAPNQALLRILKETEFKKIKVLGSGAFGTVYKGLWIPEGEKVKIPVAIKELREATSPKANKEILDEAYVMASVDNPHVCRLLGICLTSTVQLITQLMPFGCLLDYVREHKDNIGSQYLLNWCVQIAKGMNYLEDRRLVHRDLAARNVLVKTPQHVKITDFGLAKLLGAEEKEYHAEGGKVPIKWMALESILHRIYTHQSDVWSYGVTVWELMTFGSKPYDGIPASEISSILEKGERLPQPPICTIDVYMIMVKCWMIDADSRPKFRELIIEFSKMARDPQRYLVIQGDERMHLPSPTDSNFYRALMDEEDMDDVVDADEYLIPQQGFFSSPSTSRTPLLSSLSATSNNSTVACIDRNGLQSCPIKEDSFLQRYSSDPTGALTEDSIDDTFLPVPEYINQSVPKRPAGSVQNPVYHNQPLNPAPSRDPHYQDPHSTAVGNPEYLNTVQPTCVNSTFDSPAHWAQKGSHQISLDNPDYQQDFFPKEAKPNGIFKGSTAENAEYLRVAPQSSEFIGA

With `CC(C)(C)OC(=O)N[C@@H](Cc1ccc(O)cc1)C(=O)CBr` [Boc-TyrCH2 Br], the “% inhibition, EGF Added” value in assay [1] (EGF added) is 78%. The “EGF Added (pmol 32P incorporated/min/mg protein)” value in assay [1] (EGF added, control 96.2) is 20.6 pmol^32 P incorporated/min/mg. The “% inhibition, No EGF Added” value in assay [1] (no EGF) is reported as 83%. The “No EGF Added (pmol 32P incorporated/min/mg protein)” value in assay [1] (no EGF, control 21.6) is 3.6 pmol^32 P incorporated/min/mg. For the same compound, the “% inhibition” value on A-431 cell EGF receptor was 49%. At p130^fps (250 nmoles/mg protein), the “% inhibition” value is given as 84%; the “Activity (cpm), FSV” value is 4204 cpm; the “Activity (cpm), Control” value was determined as 2132 cpm. Besides, at p130^fps (500 nmoles/mg protein), the “% inhibition” value worked out at 87%; the “Activity (cpm), FSV” value was 3404 cpm; the “Activity (cpm), Control” value is given as 2140 cpm.

On to `Cc1ccc(S(=O)(=O)N[C@@H](CCCCN)C(=O)CCl)cc1` [TLCK, N-α-tosyl-L-lysyl chloromethyl ketone], for which the “in vivo protein phosphorylation activity associated with pp60src (in words)” value in the assay with pp60^src is recorded as “observed to inhibit”. In addition, in the assay on ASV-transformed cells, the “phenotype of ASV-transformed cells upon treatment (in words)” value is reported as “phenotypic reversion of ASV-transformed cells to normal”.

For the compound `CC(C)COC(=O)OC(C)C(=O)CCl` (stereo not drawn) [2-isobutyl 3-oxo-4-chloro-2-butyl carbonate], the “hexokinase activity of Ehrlich ascites tumor cells (in words)” value in the assay on hexokinase is “inhibition”. In the assay on protein kinase, the “protein kinase activity of Ehrlich ascites tumor cells (in words)” value was “inhibition”.

Usually % inhibition stands for how much of the control response was suppressed.
